Columns and labels:
[1] = preparation of pool 22
[2] = molecular target: T1, HLA-A*0301 (Homo sapiens, UniProt P04439); assay: ProImmune REVEAL MHC class I binding assay of nonamers; conditions: score as % of positive control peptide
T1 construct: purchased ProImmune
Source text: (§1) The number of HLA class I binding registers contained in each peptide may be determined by determining the ability of the peptide to bind to a range of frequently occurring HLA class I molecules. HLA class I binding may be measured using the ProImmune REVEAL® MHC-peptide Binding Assay (ProImmune Ltd, Oxford, UK). The REVEAL™ MHC peptide-binding assay measures the ability of each peptide to stabilize the ternary MHC-peptide complex for […], HLA-A*0201, HLA¬A*0301, HLA-A*2402, HLA-B*0702, HLA-B*0801, HLA-B*3501 representative of main HLA class I supertypes. Each tested peptide is given a score relative to a pass/fail control peptide and also compared to a positive control peptide.
(§2) Detection is based on the presence or absence of the native conformation of the MHC-peptide complex. The highly frequent HLA class I alleles (HLA-A*0201, A*0301, A*1101, A*2402, B*0702, B*0801, and B*3501) were selected. Binding to MHC molecules was compared to that of a known T-cell epitope, a positive control peptide, with very strong binding properties. […] The score of the test peptide is reported quantitatively as a percentage of the signal generated by the positive control peptide, and the peptide is indicated as having a putative pass or fail result. Good binders are considered to be those peptides with scores 45% of the positive control as defined by ProImmune.

[3] = molecular target: HLA-B*3501 (Homo sapiens, UniProt P01889, A329T/A93T/A95T/C349S/D201E/D98Y/E176V/E187L/E204Q/E69T/I218V/K202T/L119I/Q94N/R155S/R180L/S121R/S35A/S48A/T118I/V127L/V306I/V36M/Y140S/Y91F); assay: as above; conditions: score as % of positive control peptide
Source text: as §1, §2

[4] = molecular target: HLA-A*2402 (Homo sapiens, UniProt P04439, D101N/D140Y/D185E/E176V/E190D/F33S/G103R/G107R/I119L/I121M/I306V/K335N/L105A/L180Q/L300P/N151K/N90K/Q86E/Q94H/R106L/R138H/R89G/T104I/T345S/V100E/W191G/Y123F); assay: as above; conditions: score as % of positive control peptide
Source text: as §1, §2

[5] = molecular target: HLA-B*0801 (Homo sapiens, UniProt P01889, A93T/A95T/D138N/E176V/E187T/K202T/Q94N/R180D/S35A/V36M/Y33D/Y91F); assay: as above; conditions: score as % of positive control peptide
Source text: as §1, §2

[6] = molecular target: T2, HLA-A*1101 (Homo sapiens, UniProt P04439, A114D/D185E/E176A/F33Y/L180Q/S129P/T187R); assay: as above; conditions: score as % of positive control peptide
T2 construct: purchased ProImmune
Source text: as §1, §2

[7] = molecular target: T3, HLA-B*0702 (Homo sapiens, UniProt P01889); assay: as above; conditions: score as % of positive control peptide
T3 construct: purchased ProImmune
Source text: as §1, §2

[8] = molecular target: HLA-A*0201 (Homo sapiens, UniProt P04439, D140Y/D185E/D98H/E176V/E277Q/G131W/G231S/I119V/I121R/I166T/I218V/L300P/L318F/N151K/N90K/P208A/P217A/Q86G/Q94H/R138H/R169H/T345S); assay: as above; conditions: score as % of positive control peptide
Source text: as §1, §2

[9] = molecular target: T4, HLA-DR15 (α1*01:01;β1*15:01) (Homo sapiens, UniProt P01903+P01911); assay: ProImmune REVEAL MHC class II binding assay of long peptides; conditions: percentage of the signal of the positive control peptide; positive binding score >=15%
T4 construct: purchased ProImmune
Source text: (§3) The highly frequent HLA class II alleles HLA-DR1 (α1*01:01;β1*01:01), HLA-DR15 (α1*01:01;β1*15:01), HLA-DR3 (α1*01:01;β1*03:01), HLA-DR4 (α1*01:01;β1*04:01), HLA-DR11 (α1*01:01;β1*11:01), HLA-DR13 (α1*01:01;β1*13:01), and HLA-DR7 (α1*01:01;β1*07:01) were selected. Each peptide was given a score relative to the positive control peptide, which is a known T-cell epitope. The score of the test peptide is reported quantitatively as a percentage of the signal generated by the positive control peptide, and the peptide is indicated as having a putative pass or fail result. Good binders are considered to be those peptides with scores >=15% of the positive control as defined by Proimmune.

[10] = molecular target: T5, HLA-DR7 (α1*01:01;β1*07:01) (Homo sapiens, UniProt P01903+P01911, A100R/A102G/A103Q/D57E/D86V/E43K/F76Y/K127E/L162R/M171V/P40G/Q125H/Q99D/R195Q/R33Q/R42Y/R54Q/S133A/S149N/S66F/T210M/V115G/Y107V/Y59L/Y89S); assay: as above; conditions: percentage of the signal of the positive control peptide; positive binding score >=15%
T5 construct: purchased ProImmune
Source text: as §3

[11] = system: HLA-DP4 (α1*01:03;β1*04:01); assay: as above; design: species or system human; conditions: percentage of the signal of the positive control peptide; positive binding score >=15%
[12] = system: HLA-DR1 (α1*01:01;β1*01:01); assay: as above; design: species or system human; conditions: percentage of the signal of the positive control peptide; positive binding score >=15%
Source text: as §3

[13] = system: HLA-DR3 (α1*01:01;β1*03:0); assay: as above; design: species or system human; conditions: percentage of the signal of the positive control peptide; positive binding score >=15%
Source text: as §3

[14] = system: PBMC from chronic HBV-infected subjects; assay: IFNγ ELISpot of PBMC restimulated with individual unconjugated HBV long peptides (Example 5); type: cell-based, human; conditions: for T cell responses (IFNγ ELISpot), level and frequency of responders: HBeAg-negative inactive carriers and HBeAg-negative treated subjects, 5 μg/mL, 18 h, FIGS. 9 and 10; for T cell responses (IFNγ ELISpot) grouped by infecting HBV genotype: genotypes A, B, C & D, FIG. 11; for T cell responses (IFNγ ELISpot) grouped by ethnic background: three ethnic groups, FIG. 12
Method: One vial of PBMC from each subject (containing 1×10^7 cells) was thawed and lymphocyte numbers were determined using a Scepter™ automated handheld cell counter. PBMC were cultured in 2 mL culture medium (CM: RPMI-1640 Glutamax supplemented with 5% human AB serum) in 24 well cell culture plates at a concentration of 1×10^6 cells/mL for a total of 11 days. Cells were stimulated with a mixture of the nine HBV-derived long peptides described in Example 3.
Each peptide was used at a final concentration of 1 μg/peptide/mL. On Day 4, IL-2 and IL-15 were added to the cultures to final concentrations of 10 IU/mL and 10 ng/mL respectively. On Day 10, cells were washed twice in CM and cultured with 10 IU/mL IL-2 for 1 additional day. On Day 11, cells were washed twice in CM, counted and incorporated in a human IFNγ (interferon-gamma) ELISpot assay or intracellular cytokine staining.
Cells from short term cultures were plated in triplicate wells at 5×10^4 PBMC/well. Final antigen concentrations used were: 5 μg/mL for each individual peptides; PHA positive control: 1 μg/mL.

[15] = system: HLA class I alleles; assay: ProImmune REVEAL MHC class I binding assay, summary over the seven alleles; design: species or system human; conditions: for Number of allele (b): number of class I alleles for which positive binding was detected; for Number of HLA binders (a): total number binding epitopes detected for each long peptide, seven class I alleles
Source text: as §1, §2

[16] = system: HLA class II alleles; assay: ProImmune REVEAL MHC class II binding assay, summary over the seven alleles; design: species or system human; conditions: number of class II alleles for which positive binding (score >=15%) was detected
Source text: as §3

[17] = molecular target: T6, HLA-DR13 (α1*01:01;β1*13:01) (Homo sapiens, UniProt P01903+P01911, A100E/A169T/K41T/L162R/M171V/P40S/Q125H/Q178H/Q39Y/Q99D/R42S/S66N/W38E/Y61H); assay: ProImmune REVEAL MHC class II binding assay of long peptides; conditions: percentage of the signal of the positive control peptide; positive binding score >=15%
T6 construct: purchased ProImmune
Source text: The highly frequent HLA class II alleles HLA-DR1 (α1*01:01;β1*01:01), HLA-DR15 (α1*01:01;β1*15:01), HLA-DR3 (α1*01:01;β1*03:01), HLA-DR4 (α1*01:01;β1*04:01), HLA-DR11 (α1*01:01;β1*11:01), HLA-DR13 (α1*01:01;β1*13:01), and HLA-DR7 (α1*01:01;β1*07:01) were selected. Each peptide was given a score relative to the positive control peptide, which is a known T-cell epitope.

T6 sequence (P01903 26-216, other chains not shown): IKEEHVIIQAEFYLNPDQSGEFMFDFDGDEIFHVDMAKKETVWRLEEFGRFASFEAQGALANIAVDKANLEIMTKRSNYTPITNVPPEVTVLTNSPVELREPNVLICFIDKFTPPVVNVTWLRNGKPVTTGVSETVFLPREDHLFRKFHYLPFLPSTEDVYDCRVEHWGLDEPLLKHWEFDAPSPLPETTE

| Compound | dispersibility / solubility [1] | Number of nonamers having a binding score >= 45%, HLA-A*0301 [2] | Number of nonamers having a binding score >= 45%, HLA-B*3501 [3] | Number of nonamers having a binding score >= 45%, HLA-A*2402 [4] | Number of nonamers having a binding score >= 45%, HLA-B*0801 [5] | Number of nonamers having a binding score >= 45%, HLA-A*1101 [6] | Number of nonamers having a binding score >= 45%, HLA-B*0702 [7] | Number of nonamers having a binding score >= 45%, HLA-A*0201 [8] | binding score, HLA-DR15 (α1*01:01;β1*15:01) [9] [%] | binding score, HLA-DR7 (α1*01:01;β1*07:01) [10] [%] | binding score, HLA-DP4 (α1*01:03;β1*04:01) [11] [%] | binding score, HLA-DR1 (α1*01:01;β1*01:01) [12] [%] | binding score, HLA-DR3 (α1*01:01;β1*03:0) [13] [%] | T cell responses (IFNγ ELISpot), level and frequency of responders [14] | T cell responses (IFNγ ELISpot) grouped by infecting HBV genotype [14] | T cell responses (IFNγ ELISpot) grouped by ethnic background [14] | Number of allele (b) [15] | Number of HLA binders (a) [15] | Number of allele (a) [16] | binding score, HLA-DR13 (α1*01:01;β1*13:01) [17] [%] |
| --- | --- | --- | --- | --- | --- | --- | --- | --- | --- | --- | --- | --- | --- | --- | --- | --- | --- | --- | --- | --- |
| CC[C@H](C)[C@H](NC(=O)[C@H](Cc1ccccc1)NC(=O)[C@H](CC(C)C)NC(=O)[C@H](Cc1ccccc1)NC(=O)[C@@H](NC(=O)[C@@H](NC(=O)[C@H](Cc1ccccc1)NC(=O)[C@H](CCCNC(=N)N)NC(=O)[C@H](CCCNC(=N)N)NC(=O)[C@@H](N)CC(C)C)[C@@H](C)CC)[C@@H](C)CC)C(=O)N[C@@H](CC(C)C)C(=O)N[C@@H](CC(C)C)C(=O)N[C@@H](CC(C)C)C(=O)N[C@@H](CS)C(=O)N[C@@H](CC(C)C)C(=O)N[C@H](C(=O)N[C@@H](Cc1ccccc1)C(=O)N[C@@H](CC(C)C)C(=O)N[C@@H](CC(C)C)C(=O)N[C@H](C(=O)O)C(C)C)[C@@H](C)CC [SEQ ID NO: 212] | could not be dispersed due to insolubility | – | – | – | – | – | – | – | – | – | – | – | – | – | – | – | – | – | – | – |
| CC[C@H](C)[C@H](NC(=O)[C@H](CC(C)C)NC(=O)[C@H](CS)NC(=O)[C@H](CC(C)C)NC(=O)[C@H](CC(C)C)NC(=O)[C@H](CC(C)C)NC(=O)[C@@H](NC(=O)[C@@H](N)Cc1ccccc1)[C@@H](C)CC)C(=O)N[C@@H](Cc1ccccc1)C(=O)N[C@@H](CC(C)C)C(=O)N[C@@H](CC(C)C)C(=O)N[C@H](C(=O)N[C@@H](CC(C)C)C(=O)N[C@@H](CC(C)C)C(=O)N[C@@H](CC(=O)O)C(=O)N[C@@H](Cc1ccc(O)cc1)C(=O)N[C@@H](CCC(N)=O)C(=O)NCC(=O)N[C@@H](CCSC)C(=O)N[C@@H](CC(C)C)C(=O)O)C(C)C [SEQ ID NO: 213] | could not be dispersed due to insolubility | – | – | – | – | – | – | – | – | – | – | – | – | – | – | – | – | – | – | – |
| NP856(K): unconjugated HBV long peptide, core 839-873 + KKK (LTFGRETVLEYLVSFGVWIRTPPAYRPPNAPILSTKKK; HBV CONSENSUS SEQUENCE) | – | 0 | 0 | 4 | 1 | 0 | 2 | 4 | 5.71 | 0.40 | 10.72 | 2.33 | 0.13 | highest level of responses in both patient populations and in the highest proportion of subjects | highest responses across all four genotypes A, B, C & D | highest responses across all three ethnic groups | 4 | 11 | 0 | 0.00 |
| NP877: unconjugated HBV long peptide, core 860-890 | – | 0 | 0 | 2 | 1 | 0 | 1 | 2 | 0.09 | 2.78 | 0.04 | 0.24 | 5.58 | highest level of responses in both patient populations and in the highest proportion of subjects | highest responses across all four genotypes A, B, C & D | highest responses across all three ethnic groups | 4 | 6 | 1 | – |
